Values quoted from earlier work, collected in patent publication US12661368B2, “Maribavir isomers, compositions, methods of making and methods of using” (Takeda Pharmaceutical Company Limited, priority 2010, dated 2026).

What was measured:
cytomegalovirus (CMV) [1] = settings: Phase 2, 200 Study
cytomegalovirus (CMV) [2] = settings: Phase 3, 300 Study, allogeneic SCT patients, prophylaxis

**Q.** Which tolerability profile (cytomegalovirus (CMV) [1]; administration for up to 12 weeks, SCT patients) does the source give for `CC(C)Nc1nc2cc(Cl)c(Cl)cc2n1[C@H]1O[C@@H](CO)[C@H](O)[C@@H]1O` [maribavir, 5,6-dichloro-2-(isopropylamino)-1-(β-L-ribofuranosyl)-1H-benzimidazole] here?
**A.** favorable tolerability profile

**Q.** And the “rate of reactivation of CMV in recipients of allogeneic stem cell (bone marrow) transplants” value (cytomegalovirus (CMV) [1]; prophylaxis, fasted dosing protocol, preliminary results)?
**A.** significant reduction

**Q.** And the “key secondary endpoints of the study” value (cytomegalovirus (CMV) [2])?
**A.** failed to meet its key secondary endpoints

**Q.** And the “reducing the rate of CMV disease, maribavir versus placebo (primary analysis)” value (cytomegalovirus (CMV) [2]; dosing fasted or fed)?
**A.** no statistically significant difference
